Measured values: patent publication US11446287B2, “Compounds and methods for EP300 or CBP modulation and indications therefor” (Opna Immuno-Oncology SA, priority 2019, dated 2022)

Biological target: T1, Recombinant human EP300 containing the bromodomain (EP300-BD (1040-1161)) (Homo sapiens, UniProt Q09472)
T1 construct: Recombinant human EP300 bromodomain (EP300-BD (1040-1161)); made in house; host or cells: E. coli BL21-CodonPlus (DE3), modified pET vector
T1 sequence (Q09472 1040-1161): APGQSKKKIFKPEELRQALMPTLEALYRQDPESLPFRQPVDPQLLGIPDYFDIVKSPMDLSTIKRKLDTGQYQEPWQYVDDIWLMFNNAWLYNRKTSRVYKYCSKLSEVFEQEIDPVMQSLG
Experiment: EP300 Alphascreen binding assay
Description: EP300 Alphascreen Binding Assay
Binding of compounds of Formula (I) with EP300 was assessed using Alphascreen™ binding assay. The inhibition of the interaction between the EP300 bromodomain and its acetylated target protein was measured quantitatively using recombinant EP300 protein, an acetylated Histone 3 peptide and AlphaScreen™ technology. In absence of inhibition of the EP300 protein bound to AlphaScreen™ nickel chelate acceptor beads can interact with the acetylated Histone 3 peptide which is immobilized by the AlphaScreen™ Streptavidin coated beads. This interaction brings donor and acceptor beads in proximity. The close proximity allows the singlet oxygen produced by laser excitation of the donor beads to reach the acceptor beads and generate a luminescence signal. EP300 inhibitors result in a decrease in the proximity signal through an inhibition of the EP300—acetylated peptide interaction.
Recombinant human EP300 containing the bromodomain (EP300-BD (1040-1161)) was prepared and purified as described in protein expression and purification session. The peptide is human Histone H345-64K56Ac-Biotin (Anaspec CA, USA).
Protocol for EP300 assay: All components were prepared in buffer composed of 50 mM HEPES pH 7.5, 50 mM NaCl, 0.01% BSA, 0.01% Triton X-100, 2 mM DTT. Test compounds and DMSO vehicle were diluted 1:50 in buffer and a 4 μL volume is transferred to an Alphaplate. 5.5 μL of EP300 protein and 5.5 μL of peptide were added to wells containing 4 μL of various concentrations of test compounds of Formula (I) or DMSO vehicle in an Alphaplate (PerkinElmer GA, USA) and incubated for 1 hour at room temperature. 5 μL donor and acceptor bead mixture was then added with final concentrations of 7.5 μg/ml. 60 minutes after bead addition, Alpha signal is read on the Envision spectrometer (λEx 680 nm, λEm 520-620 nm). Final concentrations of bromodomain proteins and peptide are as shown below.
All data were normalized to the mean of 16 high and 16 low control wells on each plate. A four parameter curve fit of the following formula was then applied: Y=A+((B−A)/(1+((C/x)^D))) Where ‘A’ is the minimum, ‘B’ is the maximum, ‘C’ is the IC50 and ‘D’ is the Hill slope. Protein Expression and Purification
Recombinant human EP300 bromodomain (EP300-BD (1040-1161)) was expressed in E. coli cells (in a modified pET vector) with an N-terminal six-His tag and purified using a combination of both IMAC (Ni-affinity) and size exclusion chromatography steps.
Recombinant EP300 protein was expressed using the E. coli strain BL21-CodonPlus (DE3) (Agilent Technologies CA, USA). Cells were grown in Terrific Broth (TB) media to an OD600 of 0.7 at 37° C. at which temperature was reduced to 18° C., protein was induced with 1.0 mM isopropyl-β-D-thiogalactopyranoside (“IPTG”) for 20 hours and harvested by centrifugation at 8500×g for 20 minutes. Cells were re-suspended in 0.1M K2PO4 pH 8.0, 250 mM NaCl, 10% Glycerol, 0.75% NP-40, 25 mM Imidazole, with 0.2 mg/ml Lysozyme, 0.2 mM phenylmethanesulfonyl fluoride (“PMSF”), 25 μg/ml DNase I, incubated on ice for 30 minutes and lysed with a cell disruptor (MicroFluidics MA, USA). The lysate was clarified by centrifugation at 20,000×g for 1 hour. The protein was captured with Ni-NTA resin (Life Technologies, USA). Contaminating proteins were washed off with 50 mM HEPES pH 7.5, 500 mM NaCl, and 5% Glycerol. Following 3× wash steps, protein was eluted step wise using 10, 25, 50, 100, 150, and 250 mM Imidazole in 50 mM HEPES pH 7.5, 500 mM NaCl, and 5% glycerol. The protein was further purified using a size exclusion column (26/600 Superdex 200, GE Biosciences NJ, USA) in 10 mM HEPES pH 7.5, […].

SMILES | IC50 [µM]
CCOc1cc(C(=O)O)ccc1-c1cn([C@@H](C)c2ccccn2)c2ncc(-c3c(C)noc3C)cc12 [P-0114, (S)-4-(5-(3,5-dimethylisoxazol-4-yl)-1-(1-(pyridin-2-yl)ethyl)-1H-pyrrolo[2,3-b]pyridin-3-yl)-3-ethoxybenzoic acid] | 0.0001 to 1
Cc1noc(C)c1-c1cnc2c(c1)c(-c1ccc(C(=O)O)cc1OCC(F)(F)F)cn2[C@@H](C)c1ccccn1 [P-0115, (S)-4-(5-(3,5-dimethylisoxazol-4-yl)-1-(1-(pyridin-2-yl)ethyl)-1H-pyrrolo[2,3-b]pyridin-3-yl)-3-(2,2,2-trifluoroethoxy)benzoic acid] | 0.0001 to 1
Cc1noc(C)c1-c1cnc2c(c1)c(-c1ccc(C(=O)O)cc1C(F)(F)F)cn2[C@@H](C)c1ccccn1 [P-0116, (S)-4-(5-(3,5-dimethylisoxazol-4-yl)-1-(1-(pyridin-2-yl)ethyl)-1H-pyrrolo[2,3-b]pyridin-3-yl)-3-(trifluoromethyl)benzoic acid] | 0.0001 to 1
CCCOc1cc(C(=O)O)cc(OCCC)c1-c1cn([C@@H](C)c2ccccn2)c2ncc(-c3c(C)noc3C)cc12 [P-0117, (S)-4-(5-(3,5-dimethylisoxazol-4-yl)-1-(1-(pyridin-2-yl)ethyl)-1H-pyrrolo[2,3-b]pyridin-3-yl)-3,5-dipropoxybenzoic acid] | 0.0001 to 1
Cc1noc(C)c1-c1cnc2c(c1)c(-c1c(OC(C)C)cc(C(=O)O)cc1OC(C)C)cn2[C@@H](C)c1ccccn1 [P-0118, (S)-4-(5-(3,5-dimethylisoxazol-4-yl)-1-(1-(pyridin-2-yl)ethyl)-1H-pyrrolo[2,3-b]pyridin-3-yl)-3,5-diisopropoxybenzoic acid] | 0.0001 to 1
COc1cc(C(=O)O)cc(OC)c1-c1cn(C(C)c2ccccc2)c2cc(-c3c(C)noc3C)cnc12 (centres unmarked) [P-0119, 4-(6-(3,5-dimethylisoxazol-4-yl)-1-(1-phenylethyl)-1H-pyrrolo[3,2-b]pyridin-3-yl)-3,5-dimethoxybenzoic acid] | 0.0001 to 1
Cc1noc(C)c1-c1cnc2c(-c3ccccc3C(=O)O)cn(C(C)c3ccccc3)c2c1 (centres unmarked) [P-0120, 2-(6-(3,5-dimethylisoxazol-4-yl)-1-(1-phenylethyl)-1H-pyrrolo[3,2-b]pyridin-3-yl)benzoic acid] | 0.0001 to 1
Cc1noc(C)c1-c1cnc2c(C(=O)C3CCC3)cn(-c3c(Cl)cc(C(=O)O)cc3Cl)c2c1 [P-0121, 3,5-dichloro-4-(3-(cyclobutanecarbonyl)-6-(3,5-dimethylisoxazol-4-yl)-1H-pyrrolo[3,2-b]pyridin-1-yl)benzoic acid] | 0.0001 to 1
Cc1noc(C)c1-c1cnc2c(c1)c(-c1cccc(C(=O)O)n1)cn2C(C)c1ccccn1 (centres unmarked) [P-0122, 6-(5-(3,5-dimethylisoxazol-4-yl)-1-(1-(pyridin-2-yl)ethyl)-1H-pyrrolo[2,3-b]pyridin-3-yl)picolinic acid] | 1 to 8
Cc1noc(C)c1-c1cnc2c(c1)c(-c1ccc(C(=O)O)cn1)cn2C(C)c1ccccn1 (centres unmarked) [P-0123, 6-(5-(3,5-dimethylisoxazol-4-yl)-1-(1-(pyridin-2-yl)ethyl)-1H-pyrrolo[2,3-b]pyridin-3-yl)nicotinic acid] | 0.0001 to 1
Cc1noc(C)c1-c1cnc2c(c1)c(-c1cc(C(=O)O)ccn1)cn2C(C)c1ccccn1 (centres unmarked) [P-0124, 2-(5-(3,5-dimethylisoxazol-4-yl)-1-(1-(pyridin-2-yl)ethyl)-1H-pyrrolo[2,3-b]pyridin-3-yl)isonicotinic acid] | 0.0001 to 1
Cc1noc(C)c1-c1cnc2c(c1)c(-c1ccc(F)c(C(=O)O)c1F)cn2[C@@H](C)c1ccccn1 [P-0125, (S)-3-(5-(3,5-dimethylisoxazol-4-yl)-1-(1-(pyridin-2-yl)ethyl)-1H-pyrrolo[2,3-b]pyridin-3-yl)-2,6-difluorobenzoic acid] | 0.0001 to 1
Cc1noc(C)c1-c1cnc2c(c1)c(-c1ccnc(C(=O)O)n1)cn2C(C)c1ccccn1 (centres unmarked) [P-0126, 4-(5-(3,5-dimethylisoxazol-4-yl)-1-(1-(pyridin-2-yl)ethyl)-1H-pyrrolo[2,3-b]pyridin-3-yl)pyrimidine-2-carboxylic acid] | 0.0001 to 1
CCCOc1cc(C(=O)O)cc(OCCC)c1-n1cc(CC2CCC2)c2ncc(-c3c(C)noc3C)cc21 [P-0127, 4-(3-(cyclobutylmethyl)-6-(3,5-dimethylisoxazol-4-yl)-1H-pyrrolo[3,2-b]pyridin-1-yl)-3,5-dipropoxybenzoic acid] | 0.0001 to 1
Cc1noc(C)c1-c1cnc2c(Cc3cccc(Cl)c3)cn(-c3c(Cl)cc(C(=O)O)cc3Cl)c2c1 [P-0128, 3,5-dichloro-4-(3-(3-chlorobenzyl)-6-(3,5-dimethylisoxazol-4-yl)-1H-pyrrolo[3,2-b]pyridin-1-yl)benzoic acid] | 0.0001 to 1
Cc1noc(C)c1-c1cnc2c(C(=O)c3cccc(OC(F)F)c3)cn(-c3c(Cl)cc(C(=O)O)cc3Cl)c2c1 [P-0129, 3,5-dichloro-4-(3-(3-(difluoromethoxy)benzoyl)-6-(3,5-dimethylisoxazol-4-yl)-1H-pyrrolo[3,2-b]pyridin-1-yl)benzoic acid] | 0.0001 to 1
Cc1noc(C)c1-c1cnc2c(CC3CCC3)cn(-c3ccc([N+](=O)[O-])cc3F)c2c1 [P-0130, 4-(3-(cyclobutylmethyl)-1-(2-fluoro-4-nitrophenyl)-1H-pyrrolo[3,2-b]pyridin-6-yl)-3,5-dimethylisoxazole] | 8 to 1000
Cc1noc(C)c1-c1cnc2c(Cc3ccccc3Cl)cn(-c3c(Cl)cc(C(=O)O)cc3Cl)c2c1 [P-0131, 3,5-dichloro-4-(3-(2-chlorobenzyl)-6-(3,5-dimethylisoxazol-4-yl)-1H-pyrrolo[3,2-b]pyridin-1-yl)benzoic acid] | 0.0001 to 1
Cc1noc(C)c1-c1cnc2c(Cc3cccc(OCc4ccccc4)c3)cn(-c3c(Cl)cc(C(=O)O)cc3Cl)c2c1 [P-0132, 4-(3-(3-(benzyloxy)benzyl)-6-(3,5-dimethylisoxazol-4-yl)-1H-pyrrolo[3,2-b]pyridin-1-yl)-3,5-dichlorobenzoic acid] | 0.0001 to 1
Cc1noc(C)c1-c1cnc2c(C(=O)c3cccc(OCc4ccccc4)c3)cn(-c3c(Cl)cc(C(=O)O)cc3Cl)c2c1 [P-0133, 4-(3-(3-(benzyloxy)benzoyl)-6-(3,5-dimethylisoxazol-4-yl)-1H-pyrrolo[3,2-b]pyridin-1-yl)-3,5-dichlorobenzoic acid] | 0.0001 to 1
COc1ccc(-n2cc(CC3CCC3)c3ncc(-c4c(C)noc4C)cc32)cn1 [P-0134, 4-(3-(cyclobutylmethyl)-1-(6-methoxypyridin-3-yl)-1H-pyrrolo[3,2-b]pyridin-6-yl)-3,5-dimethylisoxazole] | 1 to 8
COc1cc(C(=O)O)cc(OCc2ccccc2)c1-c1cn([C@@H](C)c2ccccn2)c2ncc(-c3c(C)noc3C)cc12 [P-0135, (S)-3-(benzyloxy)-4-(5-(3,5-dimethylisoxazol-4-yl)-1-(1-(pyridin-2-yl)ethyl)-1H-pyrrolo[2,3-b]pyridin-3-yl)-5-methoxybenzoic acid] | 0.0001 to 1
COc1c(C(=O)O)cccc1-c1cn(C(C)c2ccccc2)c2cc(-c3c(C)noc3C)cnc12 (centres unmarked) [P-0136, 3-(6-(3,5-dimethylisoxazol-4-yl)-1-(1-phenylethyl)-1H-pyrrolo[3,2-b]pyridin-3-yl)-2-methoxybenzoic acid] | 0.0001 to 1
